Like-named read-outs stand apart in the source and are kept apart here.
Tests used:
[1] = rat plasma, n = 6
Experimental: Bench-top stability was investigated to ensure that emtricitabine was not degraded in plasma samples at room temperature for a time period to cover the sample preparation. It was measured by divulging the QC samples to ambient laboratory conditions for 10 h. Freeze-thaw stability was measured over three cycles. Because of the need for occasional delayed injection of extraction samples, the stability of reconstituted samples was assessed at ambient temperature for 24 h. The freezer storage stability of emtricitabine in rat plasma at −20°C was evaluated by assaying QC samples at the beginning and one week later. All stability QC samples were analyzed in six replicates.

[2] = in vivo
Experimental: The pharmacokinetic studies were carried out in healthy male Wistar rats (250–300 g). The animals were fasted overnight before dosing with free access to water. The animals were acclimatized to laboratory conditions over the week before experiments and fed with standard rat diet, under controlled conditions of a 12 : 12 h light : dark cycle, with a temperature of 22 ± 3°C and relative humidity of 50 ± 5% RH. The experimental protocol was approved by the Institutional Animal Ethical Committee (AACP/IAEC/Jun-2012-02).
Eighteen rats were randomly separated into three groups (six animals in each group).
At regular time intervals 0, 1, 2, 4, 6, 8, 12, and every 24 h, for 10 days, samples of blood were withdrawn (100 μL) from the retroorbital plexus by microcapillary technique under light ether anesthesia into heparinized microcentrifuge tubes (50 units heparin/mL of blood).
The supernatant was decanted into a China dish and evaporated to dryness at room temperature. This was further reconstituted with 100 μL of mobile phase and vortexed for 30 s and 20 μL was injected into an HPLC system. Emtricitabine was detected at a wavelength of 280 nm. The proficiency of nanoparticulate formulations was appraised by administering pure drug orally and measuring the blood levels at 0, 0.25, 0.5, 1.5, 2, 3, 4, 6, 8, 12 and 24 h.

[3] = Bench-top stability, ambient temperature (25°C) for 4 h, spiked 0.1 μg/mL
[4] = Bench-top stability, ambient temperature (25°C) for 4 h, spiked 0.8 μg/mL
[5] = Bench-top stability, ambient temperature (25°C) for 4 h, spiked 2.0 μg/mL
[6] = Freeze-thaw stability, after three freeze-thaw cycles, spiked 0.1 μg/mL
[7] = Freeze-thaw stability, after three freeze-thaw cycles, spiked 0.8 μg/mL
[8] = Freeze-thaw stability, after three freeze-thaw cycles, spiked 2.0 μg/mL
[9] = One-week stability, stored at −16°C, spiked 0.1 μg/mL
[10] = One-week stability, stored at −16°C, spiked 0.8 μg/mL
[11] = One-week stability, stored at −16°C, spiked 2.0 μg/mL
[12] = male Wistar rats, oral, 15 mg/kg/rat, n = 6, mean ± SD, listed as Free emtricitabine, 15 mg/kg
[13] = male, Wistar, rat, plasma, po, 15 mg/kg

For `Nc1nc(=O)n([C@@H]2CS[C@H](CO)O2)cc1F` [Emtricitabine, 5-fluoro-1-(2R, 5S)-[2-(hydroxymethyl)-1,3-oxathiolan-5-yl]cytosine], the Accuracy [1, 3] was 96.0%, the Mean determined concentration [1, 3] was 0.096 µg/mL and the Accuracy [1, 4] was 97.87%. For the same compound, the Mean determined concentration [1, 4] was 0.783 µg/mL, the Accuracy [1, 5] was 97.20% and the Mean determined concentration [1, 5] was 1.944 µg/mL. For the same compound, the Accuracy [1, 6] was 99.00%, the Mean determined concentration [1, 6] was 0.099 µg/mL and the Accuracy [1, 7] was 99.37%. For the same compound, the Mean determined concentration [1, 7] was 0.795 µg/mL, the Accuracy [1, 8] was 99.75% and the Mean determined concentration [1, 8] was 1.995 µg/mL. The Accuracy [1, 9] was 93.00%, the Mean determined concentration [1, 9] was 0.093 µg/mL and the Accuracy [1, 10] was 93.25%. It also gave a Mean determined concentration [1, 10] of 0.746 µg/mL, an Accuracy [1, 11] of 95.55% and a Mean determined concentration [1, 11] of 1.911 µg/mL. The “AUMC0–∞” value ([2]; male Wistar rats, oral, 15 mg/kg/rat, n = 6, mean ± SD) was 178.32 ± 15.095 µg/mL∗h, the “AUC0–∞” value [2, 12] was 14.835 ± 0.450 µg/mL∗h and the t max [2, 12] was 2.0 ± 0.006 h. It also gave a Cmax [2, 13] of 1700 ± 17 ng/mL, an MRT [2, 13] of 12 ± 0.67 h and a half-life [2, 13] of 9.37 ± 0.58 h. For the same compound, the k el [2, 13] was 2.06e-05 s⁻¹, the AUC(0-inf) ([2]; male, Wistar, rat, plasma, po, 15 mg/kg, AUC0–∞, male Wistar rats, 15 mg/kg/rat, n = 6, mean ± SD) was 14800 ng·h/mL and the t max ([2]; male, Wistar, rat, plasma, po, 15 mg/kg, t max, male Wistar rats, 15 mg/kg/rat, n = 6, mean ± SD) was no more than 2 h. It also gave an AUC(0-inf) ([2]; male, Wistar, rat, plasma, po, 15 mg/kg/rat, AUC0−∞ (Figure 6), Wistar rats, mean ± SEM) of 14800 ± 184 ng·h/mL.
